Values quoted from earlier work in EP0548940B1, “Insecticidal compositions” (SUMITOMO CHEMICAL COMPANY LIMITED, priority 1991, dated 1993).

Conditions: at 25°C, water-diluted solution

Compound	pKa value
O=C(O)CCCCCCCC(=O)O [Azelaic acid]	Azelaic acid 4.8 (4.39)
OB(O)O [Boric acid]	Boric acid 4.8 (9.24)
